Measurements: paper PMC3539763 (ACS medicinal chemistry letters, 2010)
Entries after “also recorded” stand apart in the source; their conditions may differ. One block for each molecule: values may come before it.

Legend:
rat mGlu5 = rat mGlu5 (Rattus norvegicus, UniProt P31424); test: calcium fluorescence; assay type: cell-based; conditions: for less potent than 10e: potentiation EC50 relative to 10e
mGlu5 = mGlu5 (Rattus norvegicus, UniProt P31424); test: radioligand binding with [3H]3-methoxy-PEPy; conditions: at highest concentration, 30 μM; partial and incomplete; data not shown
Chain of mGlu5 (P31424 21-1203): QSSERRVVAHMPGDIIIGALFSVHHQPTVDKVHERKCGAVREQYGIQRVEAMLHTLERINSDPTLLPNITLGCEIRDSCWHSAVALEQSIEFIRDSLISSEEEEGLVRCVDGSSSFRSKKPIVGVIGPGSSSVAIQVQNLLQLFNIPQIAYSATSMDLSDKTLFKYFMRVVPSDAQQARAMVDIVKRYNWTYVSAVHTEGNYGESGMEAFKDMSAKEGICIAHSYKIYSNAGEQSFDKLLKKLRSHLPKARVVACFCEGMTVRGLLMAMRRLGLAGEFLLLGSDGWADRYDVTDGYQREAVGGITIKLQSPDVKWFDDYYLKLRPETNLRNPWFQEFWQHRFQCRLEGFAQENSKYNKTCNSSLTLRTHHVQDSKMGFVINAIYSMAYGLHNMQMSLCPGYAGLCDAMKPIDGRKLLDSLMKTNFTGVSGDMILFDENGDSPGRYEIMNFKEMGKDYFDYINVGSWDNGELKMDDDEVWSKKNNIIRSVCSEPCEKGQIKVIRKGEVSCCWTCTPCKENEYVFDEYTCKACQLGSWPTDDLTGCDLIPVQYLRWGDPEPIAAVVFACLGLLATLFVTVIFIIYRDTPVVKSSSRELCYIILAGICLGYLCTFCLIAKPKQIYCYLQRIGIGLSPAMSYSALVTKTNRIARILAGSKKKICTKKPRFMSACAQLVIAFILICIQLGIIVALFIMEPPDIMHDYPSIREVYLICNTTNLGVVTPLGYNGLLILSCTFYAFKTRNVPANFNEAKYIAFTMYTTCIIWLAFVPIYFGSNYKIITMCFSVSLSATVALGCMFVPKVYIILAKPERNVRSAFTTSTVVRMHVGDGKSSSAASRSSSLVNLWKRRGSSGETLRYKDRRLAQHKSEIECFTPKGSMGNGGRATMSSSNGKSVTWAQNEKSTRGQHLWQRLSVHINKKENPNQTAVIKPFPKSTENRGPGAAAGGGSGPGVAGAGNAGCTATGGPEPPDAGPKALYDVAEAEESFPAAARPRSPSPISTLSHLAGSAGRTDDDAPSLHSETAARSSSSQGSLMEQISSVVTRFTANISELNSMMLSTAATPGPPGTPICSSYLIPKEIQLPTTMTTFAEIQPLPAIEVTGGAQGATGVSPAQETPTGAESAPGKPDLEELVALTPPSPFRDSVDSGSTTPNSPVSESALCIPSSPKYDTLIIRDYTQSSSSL

[1] = kinetic aqueous solubility screen; conditions: aqueous medium
[2] = transcellular permeability; conditions: >20 × 10^-6 cm/sec is preferred for CNS targets
[3] = tested on: open field locomotor activity; test: open field locomotor activity, compound dosed alone; assay type: in vivo, rat; conditions: dosed alone at 56.6 mg/kg
[4] = stability in rat liver microsomes; conditions: after 60 min
[5] = stability in human liver microsomes; conditions: after 60 min

Chain of rat mGlu5 (P31424 21-1203): as above

less potent than 10e (rat mGlu5): > 5 fold
SMILES: COc1ccccc1N1CCN(C(=O)COCc2ccccc2)CC1 [10c]

concentration at which compound alone slightly activates mGlu5 (rat mGlu5; CRC in absence of glutamate): above 30 μM
potency enhancement vs. lead 8 (rat mGlu5; potentiator of the glutamate EC20): > 3 fold
displacement of [3H]3-methoxy-PEPy radioligand (mGlu5): ca. 50%
solubility kinetic [1]: > 30 µg/mL
transcellular permeability [2]: acceptable
parent compound remaining [4]: less than 5%
parent compound remaining [5]: less than 5%
SMILES: N#Cc1ccccc1N1CCN(C(=O)COCc2ccccc2)CC1 [10e]
mGlu5 agonism of compound alone (rat mGlu5; compound alone, no glutamate, up to 10 μM): no inherent mGlu5 agonism; also recorded: no effect
sedation / abnormal behavior in open field locomotor activity [3]: no sedation or abnormal behavior; also recorded: without causing sedation

less potent than 10e (rat mGlu5): > 5 fold
SMILES: COC(=O)c1ccccc1N1CCN(C(=O)COCc2ccccc2)CC1 [10f]

EC50 (rat mGlu5): > 10 µM
SMILES: O=C(COCc1ccccc1)N1CCN(c2ncccn2)CC1 [10h]
